Data: PMC10578352, “Identification of a Protein Arginine Methyltransferase 7 (PRMT7)/Protein Arginine Methyltransferase 9 (PRMT9) Inhibitor” (Journal of Medicinal Chemistry, 2023)
Entries after “also recorded” stand apart in the source; their conditions may differ.

System: SET-domain-containing enzymes
Assay: Selectivity against the panel of SET-domain-containing KMTs
Type: biochemical, human
Conditions: highest tested concentration 100 μM
Procedure: . […] After incubation for 60 min at 30 °C, the reaction mixture was delivered to filter paper for detection (as assessed by scintillation). […] Data were analyzed using Excel and GraphPad Prism 6.0 software (GraphPad Software Inc., San Diego, CA). Values obtained for each compound are mean ± SD determined for two separate experiments.

Compound: COC(=O)c1cc(O)c2cc(NC(=O)NCCCNC(=N)NC[C@H]3O[C@@H](n4cnc5c(N)ncnc54)[C@H](O)[C@@H]3O)cc(C(F)(F)F)c2c1 [1j, Methyl 6-(3-(3-(3-(((2R,3S,4R,5R)-5-(6-Amino-9H-purin-9-yl)-3,4-dihydroxytetrahydrofuran-2-yl)methyl)guanidino)propyl)ureido)-4-hydroxy-8-(trifluoromethyl)-2-naphthoate]
- inhibition of SET-domain-containing enzymes (in words): none of the SET-domain-containing enzymes was inhibited; also recorded: not inhibited
